{"source": "patent US20250011869A1", "about": "“TLR3 INHIBITORS FOR USE IN THE TREATMENT OF DISEASES ASSOCIATED WITH CARDIOVASCULAR CALCIFICATION” (priority 2021, published 2025)", "key": {"[1]": {"tested_on": "TLR3", "assay": "TLR3 expression in valvular interstitial cells (immunoblot / RT-qPCR)", "type": "cell-based, human", "conditions": "RT-qPCR; Poly(I:C) 2, 4, 6, 24 and 48 h (FIG. 4A)", "procedure": "(§1) Valvular interstitial cells from patients undergoing aortic valve replacement or cardiac transplantation were isolated via collagen digestion as described previously^6. Valves were rinsed in EBSS and subsequently subjected to collagenase digestion (Sigma, St. Louis, MO; 2.5 mg/mL in M199) for 30 minutes at 37° C. Thereafter, tissue samples were vortexed and supernatant containing endothelial cells was removed. Again, collagenase was added to the remaining valve tissue (1 mg/mL) for 3 h at 37° C. For mechanical disintegration of the tissue, vortexing and repeated aspiration via a pipette was performed. The supernatant was transferred into a new tube and subjected to centrifugation (300 g for 8 minutes at 4° C.). Subsequently, cells were resuspended in M199 medium containing 10% fetal calve serum, penicillin, streptomycin, L-Glutamine and amphotericin B (2.5 mg/L).\n(§2) All cells were cultivated under standard conditions (37° C., supplied with 5% CO2). Passaging of the cells was performed at 70-90% confluency, and cells were only used until passage 7 as described previously^6. […]\n(§3) RT-PCR was performed as described previously^17. […] The result for the relative gene expression was calculated by the 2-DDCt method. Mean Ct values were calculated from double determinations and samples were considered negative if the Ct values exceeded 4017. […]"}, "[2]": {"tested_on": "IFN-β", "assay": "IFN-β expression in VICs (RT-qPCR)", "type": "cell-based, human", "conditions": "Poly(I:C) 2, 4, 6, 24 and 48 h (FIG. 4B)", "procedure": "as §1, §2, §3"}, "[3]": {"tested_on": "TLR3 and IFN-β", "assay": "RT-PCR of human dermal fibroblasts (wild type, empty vector control, Tlr3−/− CRISPR)", "type": "cell-based", "conditions": "5 μg/ml, 6 h", "source_text": "(§4) Human dermal fibroblasts WT and Tlr3^−/− were kindly provided by the Jean-Laurent Casanova group and cultivated in DMEM with 4.5 g/L glucose (Lonza, Basel, Switzerland), 10% FCS (Sigma, St. Louis, MO), penicillin, streptomycin and L-Glutamine. Human dermal fibroblasts CTR cells were provided by the Villunger group and cultivated in DMEM with 4.5 g/L glucose (Lonza, Basel, Switzerland), 10% FCS (Sigma, St. Louis, MO), penicillin, streptomycin and L-Glutamine.\n(§5) All cells were cultivated under standard conditions (37° C., supplied with 5% CO2). Passaging of the cells was performed at 70-90% confluency, and cells were only used until passage 7 as described previously^6. Polyinosinic: polycytidylic acid (Poly(I:C); Invivogen, San Diego, CA) was used to stimulate cells at a concentration of either 20 μg/mL or 5 μg/ml, depending on the assay. For blockade of TLR3, the commercially available dsRNA/TLR3 inhibitor ((R)-2-(3-Chloro-6-fluorobenzo [b] thiophene-2-carboxamido)-3-phenyl-propanoic acid) was used (Merck, Darmstadt, Germany) at a concentration of 1 μg/ml as described previously^1,7. LY294002 (Invivogen, San Diego, CA), a PI3K inhibitor, was used at a concentration of 10 μM. For blockade of IFNAR1, a specific blocking antibody (Invitrogen, Carlsbad, CA) was used at a concentration of 4 μg/ml. A stable HEK (human embryonic kidney) reporter cell line (TLR3/ISRE LUCPorter; Imgenex, USA) was purchased for luminometer assay experiments. Cells were cultivated according to the manufacturer's protocol in DMEM with 4.5 g/L glucose (Lonza, Switzerland), 10% FCS (Sigma, St. Louis, MO), penicillin/streptomycin, and 4 mM L-glutamine and […] puromycin (Gibco, USA) as selection agent. Reporter experiments were performed as described previously^8. For the protein expression SF21 cells were purchased at ThermoFisher (#11497013) and cultivated in Gibco™ Sf-900™ SFM supplemented with penicillin, streptomycin and L-Glutamine. In vitro stretch was applied using a Flexcell bioreactor (Flexcell International Corporation, Burlington, NC) applying 15% cyclic strain as described previously^9.\nRT-PCR was performed as described previously^17. Total RNA was extracted from homogenized tissue or cell lysates using the Total RNA Miniprep Kit (New England BioLabs, Frankfurt, Germany) according to the manufacturer's instructions. We performed the PCR reaction in a final volume of 12.5 μL containing 2.5 μL of cDNA, 6.25 μL of Master Mix, 1 μL of fluorogenic hybridization probe, 10 μM of primer and 2.75 μL of distilled water. […] The result for the relative gene expression was calculated by the 2-DDCt method. Mean Ct values were calculated from double determinations and samples were considered negative if the Ct values exceeded 4017. […]"}, "[4]": {"tested_on": "TLR3-RUNX2 pathway", "assay": "Immunoblot of human dermal fibroblasts for the TLR3-RUNX2 pathway", "type": "cell-based", "conditions": "wild type and empty vector control cells; 5 μg/ml, 6 h", "source_text": "as §4, §5\nProtein from tissue or cell lysates was extracted using a Radioimmunoprecipitation Assay Lysis Puffer (150 mM NaCl, 1% NP-40, 0.5% Sodium Deoxycholate, 0.1% SDS and 50 mM Tris (pH 8,0)). For the extraction of nuclear or cytosolic proteins the NE-PER™ Nuclear and Cytoplasmic Extraction Reagents Kit (ThermoScientific, #78835) was used.\nProtein was thereafter separated on SDS-polyacrylamide gels of different percentages and transferred to nitrocellulose membranes as described previously^18. After blocking with either 5% BSA in TBS 0.1% Tween, 5% milk in TBS 0.1% Tween or StartingBlock™ (TBS) Blocking buffer (ThermoScientific, #37542) membranes were incubated with primary antibodies listed in Table 2."}, "[5]": {"tested_on": "VICs", "assay": "Calcification assay of VICs in osteogenic medium (Alizarin Red S, alkaline phosphatase)", "type": "cell-based, human", "conditions": "VICs in osteoblastic medium", "procedure": "For functional evaluation of osteoblastic activity, VICs were subjected to a calcification assay. Cells were cultured in osteogenic medium including 10 mmol/L beta-glycerophosphate, 10 nmol/L vitamin D3, and 10 nmol/L dexamethasone as described previously^4. The medium was changed every three days. Subsequently, supernatant was analyzed for alkaline phosphatase activity using the commercially available alkaline phosphatase assay kit (Abcam, Cambridge, UK). After careful rinsing with PBS, cells were fixed with 4% paraformaldehyde, washed with distilled water and Alizarin Red S staining solution (Alfa Aesar, Haverhill, MA) was added upon the fixed cells for 20 minutes at room temperature (RT). Imaging of the staining was performed using a Zeiss Axioplan 2 microscope (Zeiss, Oberkochen, Germany). Images were processed using Adobe Photoshop CS5.1 for Mac (Adobe Systems Inc., San Jose, CA, USA) and analyzed with ImageJ software (National Institutes of Health, Bethesda, […])."}, "[6]": {"tested_on": "VICs", "assay": "RNA sequencing of VICs vs human osteoblasts", "type": "cell-based", "conditions": "Poly(I:C) 20 μg/mL, 72 h", "procedure": "Total-RNA was isolated from five samples (VICs, cultured in calcification media and treated either 72 h with 20 μg/ml Poly(I:C), untreated controls, as well as human osteoblasts) and submitted to transcriptome analysis for the purpose of gene-expression profiling. For the RNA sequencing analysis in FIG. 5 the 2100 Bioanalyzer and RNA 6000 Nano LabChip kits (Agilent Technologies) was used to check for RNA integrity (all RINs >9). The TruSeq® Stranded mRNA HT technology was used for library preparation according to manufacturer's protocol and Illumina NextSeq® 500 1×75 bp single end sequencing was performed at the IMGM® laboratories (Martinsried, Germany). The RNA sequencing analysis in Figure S3 was performed at Novogene (UK) Co. using the NovaSeq 600 PE150.\nAll primary sequencing analyses were performed using CLC Genomics Workbench (9.5.3) including sequence QC and mapping to the human reference genome (GRCh38.p7). Differentially expression analyses were performed on raw count data and using an exact test based on negative binomial distribution (edgeR version 3.4.0) 10. P-values were adjusted according to the Benjamini-Hochberg method based on the false discovery rate (FDR). Only genes with at least four-fold change were considered. Over representation analysis for gene ontology and pathways on differentially expressed genes were performed using DAVID (6.8) 11 and ConsensusPathDB^12. Gene set enrichment analysis on log 2-fold change pre-ranked data was performed using GSEA software^13 and gene sets for biological hallmark processes and pathways (MSigDB), calcification signature as derived from respective literature, and signatures of differentially expressed genes for calcific aortic valve stenosis versus control^14 (reanalyzed data from GSE12644 using R package limma^15 including genes with more than two-fold change and FDR <0.05). Heat maps were generated using Genesis version 1.8.116 for log 2-fold change data."}}, "data": [{"substance": "Polyinosinic: polycytidylic acid [Poly(I:C)]", "values": [{"measurement": "TLR3 expression in VICs", "setting": "[1]", "result": "increased expression"}, {"measurement": "IFN-β expression in VICs", "setting": "[2]", "result": "increased expression"}, {"measurement": "transcription of TLR3 and IFN-β", "setting": "[3]; Tlr3−/− fibroblasts", "result": "no response"}, {"measurement": "transcription of TLR3 and IFN-β", "setting": "[3]; wild type and empty vector control fibroblasts", "result": "induced transcription of TLR3 and IFN-β"}, {"measurement": "IFNAR1 level", "setting": "[4]", "result": "upregulation of IFNAR1"}, {"measurement": "levels of osteoblastic transcription factor RUNX2", "setting": "[4]", "result": "increased levels"}, {"measurement": "phosphorylation of IRF3", "setting": "[4]", "result": "phosphorylation of IRF3"}, {"measurement": "calcification / production of calcific nodules", "setting": "[5]; Poly(I:C) 20 μg/mL or inhibitor 26 μM, Alizarin Red S", "result": "enhanced the production of calcific nodules"}, {"measurement": "alkaline phosphatase (ALP) activity", "setting": "[5]; supernatant", "result": "increased the activity"}, {"measurement": "transcriptome of treated VICs", "setting": "[6]", "result": "induces an osteoblastic transcriptome"}, {"measurement": "genes downregulated in both Poly(I:C)-treated VICs and human osteoblasts compared to untreated VICs", "setting": "[6]; at least four-fold change", "result": 199, "unit": "genes"}, {"measurement": "genes upregulated in both Poly(I:C)-treated VICs and human osteoblasts compared to untreated VICs", "setting": "[6]; at least four-fold change", "result": 118, "unit": "genes"}]}]}
